Measured values published in patent US20200246268A1, “CPZEN COMPOSITIONS AND USES” (PAI Life Sciences Inc., priority 2017, published 2020).
Where “and” joins values, the source holds several entries; their conditions need not be identical. Equal values may be shown once.

Experiments:
porcine stomach mucin = assay: Mucin binding dialysis assay
Method: Mucin binding was evaluated using a dialysis assay developed previously (Huang et al., 2015). Briefly, 100 μL of capreomycin, CPZEN-45, or a 50:50 combination of both at 4 mg/mL per drug was suspended in 900 μL Dulbecco's PBS without calcium or magnesium (Lonza, Cat. #17-512F) either with or without 12.5% (wt./vol) porcine stomach mucin (Sigma-Aldrich, Cat. #M1778, type III, bound sialic acid 0.5% to 1.5%, partially purified powder). The resulting mixtures were placed in Spectra/Por dialysis bags (6- to 8-kDa molecular mass cutoff, 32-mm flat width, 20.4-mm diameter; 3.3-ml/cm volume; Spectrum Laboratories, Cat. #132655, Rancho Dominguez, Calif.), with the tube ends closed using standard dialysis bag closures. […] Dialysate samples (200 μl) were collected at 10, 60, 120, and 240 minutes and the antibiotic concentration within each dialysate was determined by HPLC UV/vis analysis. The percentage of each antibiotic detected in the dialysate was calculated relative to the theoretical total concentration based on 400 μg of antibiotic in an 11-ml total volume. […]
Colistin sulfate content was measured via mass spectrometry on an Agilent 6460 Triple Quadrupole LC/MS System with a Waters Cortecs UPLC C18 1.6 2.1×50 mm column.

[1] = in vivo; cited from earlier work
[2] = Accelerated stability study: assay and related substances by HPLC; format: physicochemical; details: for CPZEN-45 assay by HPLC / Related Substances by HPLC: CPZEN-45 API
Method: Drugs were stored either individually as a free-flowing powder, as a 1:1 spray-dried formulation of capreomycin and CPZEN-45 as a free-flowing powder, or as a 1:1 spray-dried formulation in #3 hydroxypropylmethylcellulose (HPMC) capsules. All samples were deposited into 5 mL screw-top glass vials. Samples were collected at the beginning of the study, after 1 week, 1 month, 3 months, and 6 months. HPLC-based methods for detecting CPZEN-45, capreomycin, and degradation products are described in the “Methods” section below.
(§1) Capreomycin and CPZEN-45 content for forced degradation, stability, and impactor studies was measured by RP-HPLC with a Shimadzu system consisting of an SCL-10AVP system controller, two LC-10ADVP pumps, a DGU-14A degasser, SIL-10A autoinjector, and SPD-M10AVP diode array detector. […] All peaks were detected at wavelength 265 nm. Linearity for total capreomycin was obtained between 1 and 75 μg/mL (R^2=0.996) with a limit of detection (LOD) of 0.74 μg/mL. Linearity for CPZEN-45 was obtained between 0.5 and 100 μg/mL (R^2=0.996) with an LOD of 1.03 μg/mL.

[3] = format: physicochemical; details: base treatment (0.1 M NaOH, pH=12.8, 72 hours)
Method: Prior to evaluating the long-term stability of a spray-dried combination powder, multiple forced degradations on capreomycin and CPZEN-45 were performed before determining the chromatographic profile of treated materials and monitoring absorbance at 265 nm using a Shimadzu RP-HPLC unit. By this method, it was confirmed that it was possible to detect drug degradation as well as any degradants generated.
Forced degradations were performed by subjecting aqueous solutions of non-spray-dried capreomycin or CPZEN-45 at 0.1 mg/mL to multiple conditions (all at 23° C. unless noted otherwise): control (no treatment, 72 hours), acid (0.1 M HCl, pH=1.2, 72 hours), base (0.1 M NaOH, pH=12.8, 72 hours), oxidizer (3% w/v 2Na2CO3 3H2O2 (sodium percarbonate), 72 hours), 60° C. for 72 hours, or 90° C. for 30 minutes.
as §1, with “1.03 μg/mL. […]” for “1.03 μg/mL.”

[4] = 40° C./75% RH table, T = 3 MON, footnote: due to melting values after month 3 are 30° C./60% RH
[5] = 40° C./75% RH table, T = 6 MON, footnote: due to melting values after month 3 are 30° C./60% RH

colistin sulfate
Percentage of efflux in the presence of mucin relative to samples without mucin (porcine stomach mucin; after 4 hours, drug alone, 12.5% porcine stomach mucin, 37° C.): 20%

CCCCc1ccc(NC(=O)C2=CCN(C)[C@@H]([C@H](O[C@@H]3O[C@H](CN)[C@@H](O)[C@H]3O)[C@H]3O[C@@H](n4ccc(=O)[nH]c4=O)[C@H](O)[C@@H]3O)C(=O)N2C)cc1 [CPZEN-45]
Percentage of efflux in the presence of mucin relative to samples without mucin (porcine stomach mucin; not told): 48%
Oral availability [1]: not orally available due to poor absorption from the gastrointestinal tract
Stability in accelerated stability studies [2]: highly stable
CPZEN-45 assay by HPLC ([2]; 25° C./60% RH, T = 0, replicates 1-3 and average ± RSD): 98.1% and 98.0% and 95.3%
Related Substances by HPLC ([2]; 25° C./60% RH, T = 1 MON, replicates 1-3 and average): 0.7%
CPZEN-45 assay by HPLC ([2]; 25° C./60% RH, T = 1 MON, replicates 1-3 and average ± RSD): 100.7% and 98.0% and 99.5%
Related Substances by HPLC ([2]; 25° C./60% RH, T = 1 WEEK, replicates 1-3 and average): 0.4%
CPZEN-45 assay by HPLC ([2]; 25° C./60% RH, T = 1 WEEK, replicates 1-3 and average ± RSD): 96.2% and 95.8% and 97.1%
Related Substances by HPLC ([2]; 25° C./60% RH, T = 3 MON, replicates 1-3 and average): 0.4% and 0.6%
CPZEN-45 assay by HPLC ([2]; 25° C./60% RH, T = 3 MON, replicates 1-3 and average ± RSD): 98.0% and 103.2%
Related Substances by HPLC ([2]; 25° C./60% RH, T = 6 MON, replicates 1-3 and average): 0.8%
CPZEN-45 assay by HPLC ([2]; 25° C./60% RH, T = 6 MON, replicates 1-3 and average ± RSD): 97.2% and 98.4% and 97.1%
CPZEN-45 assay by HPLC [2, 4]: 97.2% and 101.0% and 102.8%
Related Substances by HPLC [2, 4]: 0.6% and 0.8%
CPZEN-45 assay by HPLC [2, 5]: 96.5% and 98.0% and 97.5%
Related Substances by HPLC [2, 5]: 1.4% and 1.2%
CPZEN-45 assay by HPLC ([2]; 40° C./75% RH, T = 0, replicates 1-3 and average ± RSD): 98.1% and 98.0% and 95.3%
Related Substances by HPLC ([2]; 40° C./75% RH, T = 1 MON, replicates 1-3 and average): 2.5% and 1.8% and 2.0%
CPZEN-45 assay by HPLC ([2]; 40° C./75% RH, T = 1 MON, replicates 1-3 and average ± RSD): 100.3% and 96.0% and 94.4%
Related Substances by HPLC ([2]; 40° C./75% RH, T = 1 WEEK, replicates 1-3 and average): 0.5%
CPZEN-45 assay by HPLC ([2]; 40° C./75% RH, T = 1 WEEK, replicates 1-3 and average ± RSD): 96.1% and 96.4% and 95.9%
Loss of the original mass of intact compound [3]: approximately 88%
